Measured values from patent US20260063641A1, “COMPOSITIONS AND METHODS FOR LABELING AND DETECTING BINDING PARTNERS” (UNIVERSITY OF UTAH RESEARCH FOUNDATION, priority 2022, published 2026).
“Also recorded” adds a separate entry of the source.

How the values were obtained:
NLuc-FKBP12F36V = target: T1, NLuc-FKBP12F36V (Homo sapiens, UniProt P62942, F37V); assay: FKBP12F36V cellular target engagement assay (competition with dTAG-13, NLuc/FLuc signal); format: cell-based; settings: mean±S.D. of n=3 technical replicates, FIG. 4D-F
T1 construct: expressed in transfected cells
T1 sequence (P62942 2-108 F37V limits assumed): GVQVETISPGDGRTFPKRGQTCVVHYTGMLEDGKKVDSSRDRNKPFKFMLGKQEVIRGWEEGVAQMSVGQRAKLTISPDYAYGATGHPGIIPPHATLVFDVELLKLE
Source text: This method, named the biotin targeting chimera (BioTAC) system, uses bifunctional molecules composed of a compound-of-interest linked to selective FKBP12F36V recruiter orthoAP1867, to recruit a ligandable proximity labeling enzyme (mTurbo-FKBP12F36V) to compound-bound complexes enabling their biotinylation and subsequent affinity purification (FIG. TA-B). To benchmark the BioTAC system for accurate detection of the direct targets of ligands the well-characterized BET protein inhibitor (+)-JQ1, which potently binds BRD2, BRD3 and BRD4 (as well as the testes-specific BET protein BRDT), was selected as a test case. A series of bifunctional molecules consisting of (+)-JQ1 conjugated to […] were synthesized via a variable linker (FIG. 1B, FIG. 4A-C). (+)-JQ1-bifunctional molecule cell permeability was measured using an FKBP12F36V cellular target engagement assay adapted from Nabet et. al Nat Commun 11, 4687 (2020). Briefly, FKBP12F36V binding molecules compete with an FKBP12F36V targeting PROTAC (dTAG-13), for NLuc-FKBP12F36V occupancy, rescuing degradation and resulting in an increase in NLuc/FLuc (control) signal relative to DMSO-treated cells. All synthesized compounds were comparably cell permeable (FIG. 4D-E).

[1] = test system: BRD2, BRD3 and BRD4 (BET proteins) and interactors; assay: BioTAC proximity labeling with label-free mass spectrometry-based proteomics of streptavidin-enriched biotinylated proteins; format: cell-based
Method: Having determined that the BioTAC system could identify BRD4 as a (+)-JQ1 target in focused screens, it was evaluated as an unbiased target-ID method. To identify direct binders of (+)-JQ1 proteome-wide, BioTAC proximity labelling experiments were performed as described above, followed by label-free mass spectrometry-based proteomic analysis of biotinylated proteins enriched following a 30 minute treatment with 100 μM biotin plus DMSO or 1 μM Cpd1, and then 1 μM Cpd1 off-competed by pre-treatment with 10 μM free (+)-JQ1.
Having established conditions for determining the primary targets of small molecules using the BioTAC system, its utility in reading out the interactome sphere of (+)-JQ1 bound BET-proteins was next investigated. An advantage of the BioTAC system is the relatively long half-life of the activated biotin-AMP intermediate generated by TurboID, allowing the labelling radius to be increased up to 35 nm by extending the labelling time. To quantitively evaluate the ability of the BioTAC system to successfully enrich the known interactome of (+)-JQ1 bound BET proteins, time course BioTAC proximity labelling experiments were performed at the 1 h and 4 h time points, and evaluated streptavidin-enriched biotinylated proteins using mass spectrometry-based proteomic analysis (FIG. 2A-C, FIG. 6). Longer time points correlated with a greater number of proteins meeting the significance cut-offs (defined as FC>2, P<0.05) for both enrichment in Cpd1 vs. DMSO, and competition with free (+)-JQ1 in Cpd1 vs. Cpd1+10 μM (+)-JQ1, (FIG. 2A, FIG. 6). […] Additionally, identified hit proteins at 1-4 hrs also included many known BET interactors, such as proteins found in components of the Pol II productive elongation complex subunit P-TEFb, the TFILD complex, and the Nucleosome Remodeling Deacetylase (NuRD) complex, as well as known BRD4 direct-binder Histone H4. […] To test this hypothesis the hits were compared to an extensive BET protein interactome reference dataset identified using AP/MS and proximity labelling coupled to mass spectrometry with and without (+)-JQ1. The BioTAC system afforded significant enrichment and off-competition (P<0.0001, one-way ANOVA) of identified reference interactors at the 4 h time point (FIG. 2B). Next it was asked whether the inverse could be performed, enriching complex members identified by Lambert et al. Mol Cell 73, 621-638 e617 (2019) directly from the data without any a priori knowledge of known interactors. It was discovered that 60% of the statistically significant enriched and (+)-JQ1 rescued hits were also present in the Lambert dataset. This observation falls greater than 7 standard deviations above a random bootstrap analysis of the data without filtering for significant enrichment and (+)-JQ1 rescue (FIG. 2C).
9 million HEK293 cells were plated into 15 cm dishes containing 12 mL of complete media (DMEM, 10% FBS, 1% pen/strep) and incubated overnight. Cells were transiently transfected with 1 mL of OptiMEM media containing 10 μg of BioTAC plasmid and 30 μL of TransIT-2020 transfection reagent for 24 hr. Following a media change, cells were optionally pre-treated with parental molecules for 10 min, then treated with bifunctional compound for 10 min, and finally labeled in 100 μM biotin for 30 min, 1 hr, or 4 hrs. Cells were washed 5 times with DPBS then harvested by scraping on ice into 1.5 mL tubes. […] Lysates were clarified by centrifuging at 16,000×g for 10 min and protein concentration determined by BCA assay. […]

- competitive displacement of dTAG-13 (FKBP12F36V cellular target engagement) (NLuc-FKBP12F36V): competitive displacement of dTAG-13
Compound: CC[C@H](C(=O)N1CCCC[C@H]1C(=O)O[C@H](CCc1ccc(OC)c(OC)c1)c1ccccc1OCC(=O)NCCOCCOCCOCCNC(=O)C[C@@H]1N=C(c2ccc(Cl)cc2)c2c(sc(C)c2C)-n2c(C)nnc21)c1cc(OC)c(OC)c(OC)c1 [Cpd1, (R)-1-(2-((17-((S)-4-(4-Chlorophenyl)-2,3,9-trimethyl-6H-thieno[3,2-f][1,2,4]triazolo[4,3-a][1,4]diazepin-6-yl)-2,16-dioxo-6,9,12-trioxa-3,15-diazaheptadecyl)oxy)phenyl)-3-(3,4-dimethoxyphenyl)propyl (S)-1-((S)-2-(3,4,5-trimethoxyphenyl)butanoyl)piperidine-2-carboxylate]
- identification of BET-containing complexes (proteomics heatmap) ([1]; 1 μM with DMSO, 10 μM or 100 μM (+)-JQ1, FC>3, P<0.05): identifies known BET-containing complexes
- enrichment and off-competition of BRD3 and BRD4 (time course proteomics) ([1]; 1 μM, 30 min, 1 h and 4 h, vs DMSO and +10 μM (+)-JQ1, FC>2, P<0.05): significantly enriched and off-competed at all time points
- fold-change of reference BRD2, BRD3 and BRD4 interactors (Lambert et al.), rescue by (+)-JQ1 ([1]; 4 hr time point, P<0.0001, 1-way ANOVA): statistically significant rescue
- enrichment of BRD3 and BRD4 among biotinylated proteins (proteomics) ([1]; HEK293, 1 μM, 100 μM biotin, 30 min, vs DMSO and 10 μM (+)-JQ1 off-compete): Highly selective enrichment of known (+)-JQ1 targets BRD3 and BRD4; also recorded: significant enrichment of BRD3 and BRD4
